Counter-ions that a name gives are not always drawn.

Results on nine compounds are retold here after US5696108A, “Protein kinase C inhibitors” (Eli Lilly and Company, priority 1996, dated 1997).

Details in all cases: Table 1
For one test, the target named is PKC-β2 (Homo sapiens, UniProt P05771). The test can be described thus: PKC Enzyme Assay, beta-2 isozyme. The test is classed as biochemical. The procedure: (§1) PKC enzymes=alpha, beta I, beta II, gamma, delta, epsilon, eta and zeta.
(§2) Assay components in a total volume of 250 μL are as follows:
(§3) For all the enzymes either histone type HL (Worthington) or myelin basic protein is used as substrate. The assay is started by addition of protein kinase C enzyme incubated at 30° C. for 10 minutes and stopped by adding 0.5 mL of cold trichloroacetic acid (Amresco) followed by 100 μL of 1 mg/mL bovine serum albumin (Sigma, St. Louis, Mo.). The precipitate is collected by vacuum filtration on glass fiber filters employing a TOMTEC™ filtration system and quantified by counting in a beta scintillation counter.

Test [1] has as its target T1, cAMP-dependent kinase catalytic subunit (Bos taurus, UniProt P00517).
T1 construct: purchased Sigma, St. Louis, Mo; host or cells: bovine heart
The test can be described thus: cAMP-Dependent protein Kinase Catalytic Subunit Assay. The test is classed as biochemical, bovine. Here is the method: cAMP-Dependent protein Kinase Catalytic Subunit Assay (PEA) The Assay components are in a total volume of 250 μL: 20 mM HEPES (Sigma, St. Louis, Mo.) buffer pH 7.5, 200 μg/mL histone type HL (Worthington), 10 mM magnesium chloride (Sigma, St. […] The reaction is initiated by addition of bovine heart cAMP-dependent kinase catalytic subunit (Sigma, St. Louis, Mo.), incubated to 30° C. for 10 minutes and stopped by adding 0.5 mL ice cold Trichloroacetic acid (Amresco) followed by 100 μL of 1 mg/mL bovine serum albumin (Sigma). The precipitate is collected by vacuum filtrated on glass fiber filters employing a TOMTEC™ and quantified by counting in a beta scintillation counter. This assay is done identical to the protein kinase C (PKC) enzyme assay except that no phospholipids or diacylglycerol are employed in the assay and the histone substrate is specific for the cAMP-dependent catalytic subunit enzyme.

The target of a further test is PKC-α (Homo sapiens, UniProt P17252). The test can be described thus: PKC Enzyme Assay, alpha isozyme. The test is classed as biochemical. Here is the method: as §1, §2, §3
Test [2] addresses calcium calmodulin dependent protein kinase. The test can be described thus: Calcium Calmodulin Dependent Protein Kinase Assay (CAM). The test is classed as biochemical, rat. The procedure:
Calcium Calmodulin Dependent Protein Kinase Assay (CAM)
The reaction is initiated by the addition of calcium calmodulin dependent protein kinase (isolated from rat brain homogenate), incubated at room temperature for 10 minutes and stopped by adding 0.5 mL ice cold trichloroacetic acid (Amresco) followed by 100 μL of 1 mg/mL bovine serum albumin (Sigma, St. Louis, Mo.). The precipitate is collected by vacuum filtration on glass fiber filters and quantified by counting in a beta scintillation counter.
25 μL calmodulin (250 μg/mL)
10 μL DMSO or DMSO/inhibitor

In a further test the target is T2, casein protein kinase II (Rattus norvegicus, UniProt P19139).
T2 construct: isolated from rat brain homogenate; from tissue; host or cells: rat brain homogenate
T2 sequence (P19139 whole entry): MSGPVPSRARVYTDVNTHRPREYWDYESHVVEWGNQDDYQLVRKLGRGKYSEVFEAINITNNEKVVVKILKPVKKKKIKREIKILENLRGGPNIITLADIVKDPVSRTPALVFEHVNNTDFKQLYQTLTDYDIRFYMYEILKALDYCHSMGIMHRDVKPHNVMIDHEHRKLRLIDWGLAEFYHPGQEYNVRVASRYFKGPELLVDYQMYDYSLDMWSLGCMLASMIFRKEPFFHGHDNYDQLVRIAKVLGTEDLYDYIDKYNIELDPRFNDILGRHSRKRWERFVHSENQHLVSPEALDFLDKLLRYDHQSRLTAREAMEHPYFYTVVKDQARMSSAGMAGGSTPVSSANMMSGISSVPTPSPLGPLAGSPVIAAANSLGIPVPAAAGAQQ
T2 sequence (P67874 2-215 partner limits assumed): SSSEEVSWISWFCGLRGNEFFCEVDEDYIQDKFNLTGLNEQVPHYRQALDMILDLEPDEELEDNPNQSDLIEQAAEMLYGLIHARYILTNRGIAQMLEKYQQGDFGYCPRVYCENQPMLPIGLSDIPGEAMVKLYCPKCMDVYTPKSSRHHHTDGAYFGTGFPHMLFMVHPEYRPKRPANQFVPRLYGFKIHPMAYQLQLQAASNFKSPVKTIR
The experiment in a line: Casein Protein Kinase II Assay (CK-II). The test is classed as biochemical. Here is the method:
Casein Protein Kinase II Assay (CK-II)
The Casein Protein Kinase II Assay is described in Neurochem. […] The assay components are in a total volume of 250 μL: 20 mM Tris-HCl, pH 7.5, 5 mM sodium fluoride, 50 mg/mL Casein (Sigma, St. Louis, Mo.), 10 mM magnesium chloride (Sigma, St. Louis, Mo.), 10 μL DMSO or DMSO/inhibitor and 30 μm (gamma-32P) ATP (DuPont). Initiation of the reaction is performed by addition of casein protein kinase II (isolated from rat brain homogenate), incubated at room temperature for 10 minutes and stopped by the addition of 0.5 mL ice cold Trichloroacetic acid (Amresco) followed by 100 μL of 1 mg/mL bovine serum albumin (Sigma, St. Louis, Mo.). The precipitate is collected by vacuum filtration on glass fiber filters and quantified by counting in a beta scintillation counter.
Assay components in order of addition
10 μL or DMSO or DMSO/inhibitor
25 μL of AT32P in 300 μM magnesium chloride
40 μL of enzyme (undiluted)
Buffer prepared as follows:
(Final volume=3.5 mL: amount of 20 assays)

For the next test, the target named is PKC-β1 (Homo sapiens, UniProt P05771). The experiment in a line: PKC Enzyme Assay, beta-1 isozyme. It counts as biochemical. The procedure: as §1, §2, §3
PKC-β1, sequence (P05771 whole entry): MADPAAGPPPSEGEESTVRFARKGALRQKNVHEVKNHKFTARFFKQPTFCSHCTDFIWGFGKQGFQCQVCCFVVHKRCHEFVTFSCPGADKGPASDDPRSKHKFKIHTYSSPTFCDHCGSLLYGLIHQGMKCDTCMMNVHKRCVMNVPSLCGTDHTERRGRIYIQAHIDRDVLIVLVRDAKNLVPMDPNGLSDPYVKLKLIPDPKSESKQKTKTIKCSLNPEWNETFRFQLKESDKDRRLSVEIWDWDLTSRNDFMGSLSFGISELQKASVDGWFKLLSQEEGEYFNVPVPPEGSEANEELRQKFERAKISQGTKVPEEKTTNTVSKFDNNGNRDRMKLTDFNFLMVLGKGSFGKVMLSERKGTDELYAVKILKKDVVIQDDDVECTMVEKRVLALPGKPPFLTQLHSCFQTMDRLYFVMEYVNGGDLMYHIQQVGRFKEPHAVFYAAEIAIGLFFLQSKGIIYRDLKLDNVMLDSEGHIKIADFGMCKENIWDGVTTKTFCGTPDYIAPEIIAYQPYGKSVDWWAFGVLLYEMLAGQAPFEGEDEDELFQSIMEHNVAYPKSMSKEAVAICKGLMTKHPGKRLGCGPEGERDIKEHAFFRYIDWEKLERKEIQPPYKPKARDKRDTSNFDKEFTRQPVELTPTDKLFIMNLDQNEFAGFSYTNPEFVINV
Another test deals with T3, src (Homo sapiens, UniProt P12931).
T3 construct: purchased Onogene Science, Inc. PK02 and PK03
T3 sequence (P12931 whole entry, species assumed): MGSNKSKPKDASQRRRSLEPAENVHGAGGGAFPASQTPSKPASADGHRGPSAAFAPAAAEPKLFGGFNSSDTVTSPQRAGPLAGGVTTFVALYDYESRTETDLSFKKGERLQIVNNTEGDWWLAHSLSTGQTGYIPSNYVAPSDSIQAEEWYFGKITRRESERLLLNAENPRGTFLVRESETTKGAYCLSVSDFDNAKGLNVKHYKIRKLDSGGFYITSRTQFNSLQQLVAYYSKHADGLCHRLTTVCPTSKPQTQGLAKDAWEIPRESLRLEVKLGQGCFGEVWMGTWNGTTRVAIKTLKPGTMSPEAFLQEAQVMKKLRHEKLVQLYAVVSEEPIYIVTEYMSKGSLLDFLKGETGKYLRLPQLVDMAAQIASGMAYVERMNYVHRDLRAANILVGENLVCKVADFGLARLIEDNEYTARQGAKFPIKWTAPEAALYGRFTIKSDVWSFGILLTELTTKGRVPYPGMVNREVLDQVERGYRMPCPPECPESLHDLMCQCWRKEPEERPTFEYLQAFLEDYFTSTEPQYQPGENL
The experiment in a line: Protein Tyrosine Kinase Assay (src). It counts as biochemical. The procedure:
Protein Tyrosine Kinase Assay (src)
The Assay components are the following:
4 μL DMSO or DMSO/inhibitor

PKC-β2, sequence (P05771 1-673 isoform P05771-2): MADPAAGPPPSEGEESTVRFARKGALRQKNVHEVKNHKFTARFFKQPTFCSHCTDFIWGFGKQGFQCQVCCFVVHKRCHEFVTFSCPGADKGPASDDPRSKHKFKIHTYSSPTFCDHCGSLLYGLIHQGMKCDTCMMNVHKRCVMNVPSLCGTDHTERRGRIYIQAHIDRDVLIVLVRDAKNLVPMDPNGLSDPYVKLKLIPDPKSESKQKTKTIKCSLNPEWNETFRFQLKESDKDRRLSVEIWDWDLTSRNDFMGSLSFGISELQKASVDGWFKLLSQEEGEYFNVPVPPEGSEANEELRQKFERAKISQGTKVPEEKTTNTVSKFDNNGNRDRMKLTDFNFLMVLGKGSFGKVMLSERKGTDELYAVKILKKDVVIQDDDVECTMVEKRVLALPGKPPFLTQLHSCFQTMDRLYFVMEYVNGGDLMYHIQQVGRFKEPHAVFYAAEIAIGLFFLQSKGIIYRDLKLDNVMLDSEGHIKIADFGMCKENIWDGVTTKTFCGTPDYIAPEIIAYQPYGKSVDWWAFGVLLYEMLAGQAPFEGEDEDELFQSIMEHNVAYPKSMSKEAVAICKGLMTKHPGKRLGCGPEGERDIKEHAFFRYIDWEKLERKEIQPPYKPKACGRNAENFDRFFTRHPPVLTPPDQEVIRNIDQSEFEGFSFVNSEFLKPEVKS

As for `CN(C)CC1CCn2cc(c3ccccc32)C2=C(C(=O)NC2=O)c2cn(c3ccccc23)CCCO1` (stereo not drawn) [Example 11], the IC50 on PKC-β2 is 100 nM; in test [1] it was more than 100000 nM; at PKC-α, 5000 nM; in test [2] it was 20000 nM; on casein protein kinase II, more than 100000 nM; at PKC-β1 it was 300 nM. On src, this compound came in with an IC50 of more than 100000 nM.

Consider `CC(=O)NC[C@H]1CCn2cc(c3ccccc32)C2=C(C(=O)NC2=O)c2cn(c3ccccc23)CCO1` [Example 19r], for which the IC50 at PKC-β2 is 30 nM; in test [1], more than 100000 nM; on PKC-α it was 480 nM; in test [2] it was 2200 nM; on casein protein kinase II it was more than 100000 nM; against PKC-β1, 32 nM. This compound displayed a half-inhibitory concentration (IC50) on src of more than 100000 nM.

With `O=C1NC(=O)C2=C1c1cn(c3ccccc13)CCCC(CO)CCn1cc2c2ccccc21` (stereo not drawn) [Example 31, 3,4-[(N,N'-1,1'-(3"-(hydroxy)methylene)hexane)-bis-(3,3'-indolyl)]-1H-pyrrole-2,5-dione], the IC50 at PKC-β2 is 30 nM; in test [1] it was more than 100000 nM; at PKC-α it was 300 nM; in test [2], 470 nM; at casein protein kinase II, more than 100000 nM; at PKC-β1, 20 nM. Also, on src, the IC50 was more than 100000 nM.

As to `NCC1CCCn2cc(c3ccccc32)C2=C(C(=O)NC2=O)c2cn(c3ccccc23)CC1` (stereo not drawn) [Example 32, 3,4-[(N,N'-1,1'-(3"-aminomethylene)-hexane)-bis-(3,3'-indolyl)]-1H-pyrrole-2,5-dione], the IC50 on PKC-β2 is 8 nM; in test [1], more than 100000 nM; against PKC-α, 100 nM; in test [2], 900 nM; against casein protein kinase II it was more than 100000 nM; on PKC-β1 it was 10 nM. Moreover, the IC50 against src was 72000 nM.

As for `O=C1NC(=O)C2=C1c1cn(c3ccccc13)CCC[C@@H](CN1CCCC1)CCn1cc2c2ccccc21` [Example 36r, (R)-3,4-[(N,N'-1,1'-(3"-(N-pyrrolidino)methylene)-hexane)-bis-(3,3"-indolyl)]-1H-pyrrole-2,5-dione hydrochloride salt], the IC50 at PKC-β2 was 14 nM; in test [1] it was more than 100000 nM; against PKC-α, 450 nM; in test [2], 7100 nM; at casein protein kinase II it was more than 100000 nM; at PKC-β1, 5 nM. The same compound showed an IC50 at src of 61000 nM.

On to `COCC1CCCn2cc(c3ccccc32)C2=C(C(=O)NC2=O)c2cn(c3ccccc23)CC1` (stereo not drawn) [Example 37, 3,4-[(N,N'-1,1'-(3"-methoxymethylene)-hexane)-bis-(3,3'-indolyl)]-1H-pyrrole-2,5-dione], for which the IC50 at PKC-β2 is 40 nM; in test [1], more than 100000 nM; on PKC-α, 700 nM; in test [2], 5000 nM; against casein protein kinase II, more than 100000 nM; at PKC-β1 it was 50 nM. Also, the IC50 at src was more than 100000 nM.

Turning to `CC(=O)OCC1CCCn2cc(c3ccccc32)C2=C(C(=O)NC2=O)c2cn(c3ccccc23)CC1` (stereo not drawn) [Example 38, 3,4-[(N,N'-1,1'-(3"-(acetoxy)methylene)-hexane)-bis-(3,3'-indolyl)]-1H-pyrrole-2,5-dione], the IC50 on PKC-β2 was 100 nM; in test [1], more than 100000 nM; against PKC-α it was 4000 nM; in test [2], 9000 nM; on casein protein kinase II, more than 100000 nM; against PKC-β1 it was 200 nM. The compound also displayed an IC50 against src of more than 100000 nM.

In the case of `O=C(NCC1CCCn2cc(c3ccccc32)C2=C(C(=O)NC2=O)c2cn(c3ccccc23)CC1)OCc1ccccc1` (stereo not drawn) [Example 39], the IC50 against PKC-β2 was 300 nM; in test [1], more than 100000 nM; at PKC-α, 31000 nM; in test [2], more than 100000 nM; against casein protein kinase II it was more than 100000 nM; against PKC-β1, 400 nM. Further, at src, the IC50 was more than 100000 nM.

`O=C1NC(=O)C2=C1c1cn(c3ccccc13)CCCCCCCn1cc2c2ccccc21` [Example 42]: the IC50 on PKC-β2 is 600 nM; in test [1] it was more than 100000 nM; at PKC-α, more than 100000 nM; in test [2] it was more than 100000 nM; against casein protein kinase II it was more than 100000 nM; against PKC-β1 it was 500 nM. The compound further came in with an IC50 at src of more than 100000 nM.
